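Tested at 5 concentrations; 48 h exposure; 96-well plates; endpoints linearly interpolated, else capped at highest concentration. At the GI50, growth is halved.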 Active and inactive are the calls of the source. Cut-off read from the data, not from the text of the source: active = GI50 up to about 1.1 µM and inactive = higher.
Tests used:
Assay in all cases: inhibition of tumour cell growth, NCI panel, 48 h
DLD-1 = tested on: DLD-1
DMS-273 = tested on: DMS-273
LXFL 529 = tested on: LXFL 529
SNB-78 = tested on: SNB-78
HOP-18 = tested on: HOP-18
KM-20L2 = tested on: KM-20L2
M19-MEL = tested on: M19-MEL
RXF 631 = tested on: RXF 631
XF498 = tested on: XF498

SMILES	GI50 (DLD-1)	GI50 (DMS-273)	GI50 (LXFL 529)	GI50 (SNB-78)	GI50 (HOP-18)	GI50 (KM-20L2)	GI50 (M19-MEL)	GI50 (RXF 631)	GI50 (XF498)
O=C(O)CCSC(=O)Nc1cccc([N+](=O)[O-])c1	72.1 µM (inactive)	> 100 µM (inactive)	> 100 µM (inactive)	> 100 µM (inactive)	–	–	–	–	–
CCOc1ccc([Se][Se]c2ccc(OCC)cc2)cc1	> 100 µM (inactive)	79.1 µM (inactive)	26 µM (inactive)	32.7 µM (inactive)	> 100 µM (inactive)	> 100 µM (inactive)	25.6 µM (inactive)	44.5 µM (inactive)	–
CCOc1cc(/C=C/C=C/C=C/c2ccc(N(C)C)cc2)[s+]c2ccccc12	–	73.8 µM (inactive)	16.3 µM (inactive)	22.5 µM (inactive)	–	–	25 µM (inactive)	> 100 µM (inactive)	23.8 µM (inactive)
C=C1C(C(=O)O)C1C(=O)O (configuration not stated)	> 100 µM (inactive)	> 100 µM (inactive)	–	> 100 µM (inactive)	> 100 µM (inactive)	> 100 µM (inactive)	> 100 µM (inactive)	–	> 100 µM (inactive)
O=c1/c(=C/c2c(O)ccc3ccccc23)sc2nc3ccccc3n12	> 100 µM (inactive)	> 100 µM (inactive)	> 100 µM (inactive)	> 100 µM (inactive)	> 100 µM (inactive)	> 100 µM (inactive)	> 100 µM (inactive)	> 100 µM (inactive)	> 100 µM (inactive)
N#CC(C(=O)CCC(=O)Nc1ccc(Cl)c(Cl)c1)c1ccccc1 (configuration not stated)	> 100 µM (inactive)	> 100 µM (inactive)	–	> 100 µM (inactive)	> 100 µM (inactive)	> 100 µM (inactive)	> 100 µM (inactive)	–	> 100 µM (inactive)
Cc1ccc(NC(=O)C(=O)Cc2nc3ccccc3o2)c(C)c1	> 100 µM (inactive)	> 100 µM (inactive)	> 100 µM (inactive)	> 100 µM (inactive)	–	> 100 µM (inactive)	> 100 µM (inactive)	> 100 µM (inactive)	> 100 µM (inactive)
O=[PH](O)c1ccsc1	> 100 µM (inactive)	> 100 µM (inactive)	> 100 µM (inactive)	–	> 100 µM (inactive)	> 100 µM (inactive)	> 100 µM (inactive)	> 100 µM (inactive)	–
COC(=O)C12C3C4C5(C(=O)OC)C(C1C35C(=O)N(C(C)C)C(C)C)C42C(=O)N(C(C)C)C(C)C (configuration not stated)	> 25.6 µM (inactive)	> 30.8 µM (inactive)	> 50 µM (inactive)	> 50 µM (inactive)	> 50 µM (inactive)	> 50 µM (inactive)	> 47.8 µM (inactive)	–	–
COc1ccc(C=C2C(=O)OC(C)(C)OC2=O)cc1OC	> 100 µM (inactive)	–	> 100 µM (inactive)	> 100 µM (inactive)	–	> 100 µM (inactive)	> 100 µM (inactive)	–	> 100 µM (inactive)
COC1C=C(Nc2cccc(Cl)c2)C(=O)C1 (configuration not stated)	51.4 µM (inactive)	50.4 µM (inactive)	50.8 µM (inactive)	48.4 µM (inactive)	19.1 µM (inactive)	55.5 µM (inactive)	> 100 µM (inactive)	–	26.9 µM (inactive)
Nc1ccc(C(=O)N/C(=C\c2cccc([N+](=O)[O-])c2)c2nc3c(O)nc(S)nc3[nH]2)cc1	> 100 µM (inactive)	–	> 57.7 µM (inactive)	39.3 µM (inactive)	–	> 100 µM (inactive)	> 100 µM (inactive)	37.2 µM (inactive)	16.9 µM (inactive)
O=C(Cc1ccccc1F)NC1=C(Cl)C(=O)c2ccccc2C1=O	–	1.52 µM (inactive)	0.405 µM (active)	–	0.668 µM (active)	8.43 µM (inactive)	0.461 µM (active)	–	0.706 µM (active)
O=C1CC23CCCCCCCCCCC2(C1)CC(=O)C3 (configuration not stated)	34 µM (inactive)	23.1 µM (inactive)	23.6 µM (inactive)	–	24 µM (inactive)	–	20.7 µM (inactive)	–	21.5 µM (inactive)
O=C(CN(c1ccccc1)c1ccccc1)n1nnc2ccccc21	76.2 µM (inactive)	39.9 µM (inactive)	70.6 µM (inactive)	47.4 µM (inactive)	–	36.4 µM (inactive)	20.6 µM (inactive)	–	–
CCOC(=O)C(NC(=O)c1nc[nH]c1[N+](=O)[O-])C(C)C (configuration not stated)	25 µM (inactive)	53.6 µM (inactive)	74.3 µM (inactive)	–	–	–	> 100 µM (inactive)	–	19.9 µM (inactive)
COc1cccc2ccc3c(c12)C(=O)OC31CCc2c(C)cccc21 (configuration not stated)	8.79 µM (inactive)	6.81 µM (inactive)	15 µM (inactive)	39.1 µM (inactive)	> 31.6 µM (inactive)	15 µM (inactive)	15.5 µM (inactive)	–	14.4 µM (inactive)
O=C1CCC2CCc3cccc4oc1c2c34 (configuration not stated)	> 100 µM (inactive)	> 100 µM (inactive)	> 100 µM (inactive)	> 100 µM (inactive)	> 100 µM (inactive)	> 100 µM (inactive)	> 100 µM (inactive)	–	> 100 µM (inactive)
COc1ccc(/C=C/CN(C)CCc2ccccc2)cc1OC	–	> 100 µM (inactive)	62.1 µM (inactive)	> 100 µM (inactive)	–	42.3 µM (inactive)	> 100 µM (inactive)	–	–
COCCNC(=O)C1C(=O)C(=O)N(CCOC)C1=O (configuration not stated)	> 100 µM (inactive)	> 100 µM (inactive)	> 100 µM (inactive)	> 100 µM (inactive)	> 100 µM (inactive)	> 100 µM (inactive)	> 100 µM (inactive)	> 100 µM (inactive)	–
O=C1NCCS(=O)(=O)N2CCC[C@@H]12	> 100 µM (inactive)	–	> 100 µM (inactive)	> 100 µM (inactive)	> 100 µM (inactive)	> 100 µM (inactive)	> 100 µM (inactive)	> 100 µM (inactive)	–
COc1ccc(/C(Cl)=C(/c2ccc(O)cc2)c2ccc(OCCN(C)C)cc2)cc1	15.7 µM (inactive)	11.1 µM (inactive)	10.8 µM (inactive)	14.5 µM (inactive)	12.5 µM (inactive)	3.1 µM (inactive)	3.72 µM (inactive)	12.4 µM (inactive)	3.65 µM (inactive)
C(=C\c1cc(CCc2nc3ccccc3[nH]2)n[nH]1)/c1ccccc1	> 100 µM (inactive)	–	–	–	> 100 µM (inactive)	> 100 µM (inactive)	> 100 µM (inactive)	> 100 µM (inactive)	> 100 µM (inactive)
COc1cc(C(C#N)NNc2nc(C)cc(O)n2)cc(OC)c1OC (configuration not stated)	> 100 µM (inactive)	> 100 µM (inactive)	> 100 µM (inactive)	> 100 µM (inactive)	> 100 µM (inactive)	> 100 µM (inactive)	> 100 µM (inactive)	–	–
CCOC(=O)C1Sc2ccccc2N=C1C (configuration not stated)	> 100 µM (inactive)	–	> 100 µM (inactive)	> 100 µM (inactive)	> 100 µM (inactive)	> 100 µM (inactive)	> 100 µM (inactive)	–	> 100 µM (inactive)

From ChEMBL document CHEMBL1201862, “PubChem BioAssay data set” (2004)
